# Assay results: patent publication US9957264B2 (Merck Sharp & Dohme Corp., priority 2013, dated 2018)
# Columns and labels:
# [1] = target: JAK2 (recombinant purified GST-tagged catalytic domain) (Homo sapiens (Human), UniProt O60674); test: Jak Biochemical HTRF Assay (JAK2); conditions: [ATP] 8.5 μM
# Method: Jak Biochemical HTRF Assay Protocol
# The ability of compounds to inhibit the activity of JAK1, JAK2, JAK3, and Tyk2 was measured using a recombinant purified GST-tagged catalytic domain for each enzyme (Invitrogen JAK1 #M4290, JAK2 #M4290, JAK3 #M4290, Tyk2 #M4290) in an HTRF format biochemical assay. […] The basic assay protocol is as follows: First, 250 nL of diluted compounds in DMSO were dispensed into the wells of a dry 384-well Black plate (Greiner #781076) using a Labcyte Echo 555 acoustic dispenser. Subsequent reagent additions employed an Agilent Bravo. […] After equilibration, 2 μL of 10×ATP in 1× assay buffer was added to initiate the kinase reaction and the plates were shaken and then incubated at room temperature for 120 minutes. […] Plates were shaken and centrifuged and then incubated 60 minutes at room temperature and then read on a Perkin Elmer Envision (λex=337 nm, λem=665 and 615 nm, TRF delay time=20 μs). HTRF signal=10,000*665 nm reading/615 nm reading. After normalization to untreated controls, the percent inhibition of the HTRF signal at each compound concentration was calculated. The plot of percent inhibition versus the log of compound concentration was fit with a 4-parameter dose response equation to calculate IC50 values.
# Final reaction conditions were:
# Examples of the instant invention were evaluated in JAK1 and JAK2 in vitro binding assays as described above.
# [2] = target: JAK1 (recombinant purified GST-tagged catalytic domain) (Homo sapiens (Human), UniProt P23458); test: Jak Biochemical HTRF Assay (JAK1); conditions: [ATP] 31.8 μM
# In short: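 Read-out is the 665/615 nm time-resolved FRET ratio from Eu-pY20 antibody and streptavidin-Dylight 650 bound to phosphorylated biotin-peptide. Reactions ran 120 min at room temperature after ATP start. Inhibition normalized to untreated controls gave IC50 via 4-parameter fit.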
# JAK2 (recombinant purified GST-tagged catalytic domain), sequence (O60674 849-1124): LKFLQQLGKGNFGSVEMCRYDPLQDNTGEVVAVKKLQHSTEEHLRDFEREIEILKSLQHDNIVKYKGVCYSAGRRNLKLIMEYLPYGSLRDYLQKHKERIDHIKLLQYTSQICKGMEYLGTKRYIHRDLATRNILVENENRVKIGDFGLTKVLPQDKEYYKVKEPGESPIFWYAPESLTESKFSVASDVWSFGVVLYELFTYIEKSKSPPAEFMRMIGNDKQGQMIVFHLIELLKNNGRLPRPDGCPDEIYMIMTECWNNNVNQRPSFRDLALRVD
# JAK1 (recombinant purified GST-tagged catalytic domain), sequence (P23458 875-1153): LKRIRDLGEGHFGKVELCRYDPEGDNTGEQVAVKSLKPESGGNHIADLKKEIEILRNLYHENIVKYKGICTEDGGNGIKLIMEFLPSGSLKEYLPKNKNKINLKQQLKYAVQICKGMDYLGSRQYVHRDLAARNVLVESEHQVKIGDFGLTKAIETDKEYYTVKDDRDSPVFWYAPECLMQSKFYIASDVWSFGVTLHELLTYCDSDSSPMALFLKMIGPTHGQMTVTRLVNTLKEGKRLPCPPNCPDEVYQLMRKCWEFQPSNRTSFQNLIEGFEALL
IC50 [1] [nM],IC50 [2] [nM],SMILES
0.29,0.08,"CN(C)S(=O)(=O)c1ccc(Nc2nn(C3(CC#N)CCN(C(=O)C4CC4)CC3)c3cc[nH]c(=O)c23)cc1 [Example 9-6, 4-({1-[4-(cyanomethyl)-1-(cyclopropylcarbonyl)piperidin-4-yl]-4-oxo-4,5-dihydro-1H-pyrazolo[4,3-c]pyridin-3-yl}amino)-N,N-dimethylbenzenesulfonamide]"
0.17,0.15,"Cc1cc(Nc2nn(C3(CC#N)CCN(c4ccc(C#N)cn4)CC3)c3cc[nH]c(=O)c23)ccc1C(=O)N1CCSCC1 [Example 15-5, 6-(4-(cyanomethyl)-4-(3-((3-methyl-4-(thiomorpholine-4-carbonyl)phenyl)amino)-4-oxo-4,5-dihydro-1H-pyrazolo[4,3-c]pyridin-1-yl)piperidin-1-yl)nicotinonitrile]"
0.36,0.09,"Cc1cc(Nc2nn([C@]3(CC#N)CC[C@@H](C(=O)OC(C)(C)C)OC3)c3cc[nH]c(=O)c23)ccc1C(=O)N1CCCC1 [Example 20-7, (2S,5S)-tert-butyl 5-(cyanomethyl)-5-(3-((3-methyl-4-(pyrrolidine-1-carbonyl)phenyl)amino)-4-oxo-4,5-dihydro-1H-pyrazolo[4,3-c]pyridin-1-yl)tetrahydro-2H-pyran-2-carboxylate]"
0.06,0.06,"CCNC(c1ccc(Nc2nn([C@@]3(CC#N)CCCC[C@H]3F)c3cc[nH]c(=O)c23)cc1)C(F)(F)F (single isomer, unassigned) [Example 5-174, {(1R,2R)-1-[3-({4-[(1R or 1S)-1-(ethylamino)-2,2,2-trifluoroethyl]phenyl}amino)-4-oxo-4,5-dihydro-1H-pyrazolo [4,3-c]pyridin-1-yl]-2-fluorocyclohexyl} acetonitrile]"
1.09,0.31,"CSCCOC(=O)N1CCC(CC#N)(n2nc(Nc3ccc(S(=O)(=O)N(C)C)cc3)c3c(=O)[nH]ccc32)CC1 [Example 11-3, 2-(methylthio)ethyl 4-(cyanomethyl)-4-(3-((4-(N,N-dimethylsulfamoyl)phenyl)amino)-4-oxo-4,5-dihydro-1H-pyrazolo[4,3-c]pyridin-1-yl)piperidine-1-carboxylate]"
0.94,0.26,"N#CCC1(n2nc(Nc3ccc(C(F)(F)F)cc3)c3c(=O)[nH]ccc32)CCC(N2CC(F)C2)CC1 (single isomer, unassigned) [Example 18-1, 2-(4-(3-fluoroazetidin-1-yl)-1-(4-oxo-3-((4-(trifluoromethyl)phenyl)amino)-4,5-dihydro-1H-pyrazolo[4,3-c]pyridin-1-yl)cyclohexyl)acetonitrile]"
0.34,0.24,"CC(C)(C)OC(=O)N1CCC(CC#N)(n2nc(Nc3ccc4c(c3)CN(C(C)(C)C)S4(=O)=O)c3c(=O)[nH]ccc32)CC1 [Example 5-23, tert-butyl 4-{3-[(2-tert-butyl-1,1-dioxido-2,3-dihydro-1,2-benzisothiazol-5-yl)amino]-4-oxo-4,5-dihydro-1H-pyrazolo[4,3-c]pyridin-1-yl}-4-(cyanomethyl)piperidine-1-carboxylate]"
0.84,0.34,"CC(C)(C)S(=O)(=O)c1ccc(Nc2nn(C3(CC#N)CCOCC3)c3cc[nH]c(=O)c23)cc1 [Example 5-252, 2-(4-(3-((4-(tert-butylsulfonyl)phenyl)amino)-4-oxo-4,5-dihydro-1H-pyrazolo[4,3-c]pyridin-1-yl)tetrahydro-2H-pyran-4-yl)acetonitrile]"
0.4,0.18,"CC(C)(C)OC(=O)[C@@H]1CC[C@@](CC#N)(n2nc(Nc3ccc4c(c3)CN(C3CCCCC3)C4=O)c3c(=O)[nH]ccc32)CO1 [Example 5-101, (2S,5S)-tert-butyl 5-(cyanomethyl)-5-(3-((2-cyclohexyl-1-oxoisoindolin-5-yl)amino)-4-oxo-4,5-dihydro-1H-pyrazolo[4,3-c]pyridin-1-yl)tetrahydro-2H-pyran-2-carboxylate]"
